Results reported in ChEMBL document CHEMBL1201862, “PubChem BioAssay data set” (2004).
Calls of active or inactive are those of the source. Rule as the data show it, for most assays here: actives have a measured EC50 and inactives only a lower limit.

Tests used:
[1] = target: Tyrosine-protein kinase receptor TYRO3 (Homo sapiens, UniProt Q06418); type: functional;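 also: TYRO3 value obtained as one member of a kinome-wide profiling panel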
[2] = target: Cyclin-dependent kinase 8 (Homo sapiens, UniProt P49336); assay: Navigating the Kinome. Panel member name: CDK8; type: functional
[3] = target: T1, Apoptotic protease-activating factor 1 (Homo sapiens, UniProt O14727); assay: SAR analysis of small molecule Activators of Apaf-1 in a Fluorescent assay.; type: functional; conditions: read-out: EC50_Mean;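 also: caspase-3 cleavage of fluorogenic Rh110 DEVD substrate downstream of apoptosome activation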
T1 sequence (O14727 whole entry): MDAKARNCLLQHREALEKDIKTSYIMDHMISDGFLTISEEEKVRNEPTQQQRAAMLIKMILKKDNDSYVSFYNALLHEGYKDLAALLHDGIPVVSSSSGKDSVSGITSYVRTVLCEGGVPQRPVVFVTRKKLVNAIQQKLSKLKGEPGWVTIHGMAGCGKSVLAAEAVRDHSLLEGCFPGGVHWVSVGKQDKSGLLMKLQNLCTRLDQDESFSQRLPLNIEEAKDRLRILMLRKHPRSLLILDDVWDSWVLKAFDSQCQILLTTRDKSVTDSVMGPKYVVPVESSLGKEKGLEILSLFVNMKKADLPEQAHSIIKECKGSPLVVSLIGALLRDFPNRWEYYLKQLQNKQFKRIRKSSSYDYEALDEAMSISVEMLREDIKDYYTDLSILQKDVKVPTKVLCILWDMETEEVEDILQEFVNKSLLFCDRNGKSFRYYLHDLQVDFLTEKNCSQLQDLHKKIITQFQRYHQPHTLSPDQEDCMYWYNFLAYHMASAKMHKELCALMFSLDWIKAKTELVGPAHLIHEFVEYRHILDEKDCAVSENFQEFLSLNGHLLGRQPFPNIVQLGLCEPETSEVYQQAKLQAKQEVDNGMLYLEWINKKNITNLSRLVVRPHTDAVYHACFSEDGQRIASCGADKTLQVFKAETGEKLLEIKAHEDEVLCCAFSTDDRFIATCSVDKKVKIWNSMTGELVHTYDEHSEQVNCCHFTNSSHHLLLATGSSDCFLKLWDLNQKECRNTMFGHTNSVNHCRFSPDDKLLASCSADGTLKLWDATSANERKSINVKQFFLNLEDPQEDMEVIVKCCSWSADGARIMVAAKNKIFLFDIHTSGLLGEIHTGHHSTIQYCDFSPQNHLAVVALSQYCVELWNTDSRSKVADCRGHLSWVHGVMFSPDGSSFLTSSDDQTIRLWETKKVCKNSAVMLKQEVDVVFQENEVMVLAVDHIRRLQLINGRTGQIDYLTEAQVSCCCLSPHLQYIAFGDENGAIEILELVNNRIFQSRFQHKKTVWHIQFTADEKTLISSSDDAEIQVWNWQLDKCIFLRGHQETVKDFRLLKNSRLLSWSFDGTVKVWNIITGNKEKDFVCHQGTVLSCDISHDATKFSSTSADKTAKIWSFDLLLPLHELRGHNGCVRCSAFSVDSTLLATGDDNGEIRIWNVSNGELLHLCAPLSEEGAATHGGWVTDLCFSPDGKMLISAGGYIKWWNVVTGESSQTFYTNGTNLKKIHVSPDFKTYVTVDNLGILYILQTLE

[4] = luciferase reporter signal suppression in cells – H4 neuroglioma cells, luminescence, dose response (AID 1990); type: functional, cell-based
[5] = luciferase reporter signal reduction – luminescence, H4-C neuroglioblastoma cells, dose response (AID 2458); type: functional, cell-based;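 also: H4 neuroglioblastoma cells stably carrying a luciferase reporter gene fusion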
cells = type: functional, cell-based
[6] = alpha-synuclein stem-loop luciferase translation blockers – H4 neuroglioma cells, luminescence, confirmation (AID 1988); type: functional, cell-based
[7] = HPDE-C7 pancreatic duct cell viability loss – fluorescence, HTS (AID 430); type: functional, cell-based; conditions: Homo sapiens
[8] = viability loss of HPDE-C7K cells – cell-based, fluorescence, HTS, primary screen (AID 431); type: functional; conditions: Homo sapiens
[9] = alpha-synuclein stem-loop translation blockers – luminescence, H4 neuroglioblastoma cells, dose confirmation, confirmation (AID 2454); type: functional, cell-based;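 also: H4 neuroglioblastoma cells carrying an alpha-synuclein 5'UTR luciferase reporter; potency for inhibition of the luciferase signal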
[10] = target: T2, High affinity choline transporter 1 (Homo sapiens, UniProt Q9GZV3); assay: human choline transporter blockers, potency – cell-based, 5-point CRC, membrane potential dye, dose response (AID 504840); type: functional
T2 sequence (Q9GZV3 whole entry): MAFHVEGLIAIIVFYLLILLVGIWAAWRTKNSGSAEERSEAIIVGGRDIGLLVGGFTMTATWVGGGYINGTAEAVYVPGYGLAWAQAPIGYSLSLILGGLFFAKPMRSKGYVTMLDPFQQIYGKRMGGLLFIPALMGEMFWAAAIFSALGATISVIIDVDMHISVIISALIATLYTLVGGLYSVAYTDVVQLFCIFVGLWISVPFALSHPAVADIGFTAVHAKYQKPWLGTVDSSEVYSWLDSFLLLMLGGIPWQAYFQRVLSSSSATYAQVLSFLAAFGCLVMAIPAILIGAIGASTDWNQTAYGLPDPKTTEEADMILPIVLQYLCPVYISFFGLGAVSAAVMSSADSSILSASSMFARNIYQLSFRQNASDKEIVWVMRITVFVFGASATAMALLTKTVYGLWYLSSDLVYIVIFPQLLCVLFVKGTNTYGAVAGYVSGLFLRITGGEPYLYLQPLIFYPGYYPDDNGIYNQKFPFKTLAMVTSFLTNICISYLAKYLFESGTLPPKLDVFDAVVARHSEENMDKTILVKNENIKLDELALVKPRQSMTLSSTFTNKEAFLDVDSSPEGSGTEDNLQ

[11] = target: T2, High affinity choline transporter 1; assay: human choline transporter blockers, potency – cell-based, 10-point CRC, membrane potential dye, dose response (AID 588401); type: functional;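 also: membrane potential dye fluorescence of choline-evoked depolarization via CHT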
[12] = target: T3, RNA-binding protein pos-1 (Caenorhabditis elegans, UniProt G5EF15); assay: disruptors of C. elegans POS-1 RNA interaction – biochemical, fluorescence polarization, dose response (AID 1964);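 also: purified POS-1 fused to maltose binding protein made in E. coli; potency of compounds blocking POS-1 binding to fluorescent RNA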
T3 sequence (G5EF15 whole entry): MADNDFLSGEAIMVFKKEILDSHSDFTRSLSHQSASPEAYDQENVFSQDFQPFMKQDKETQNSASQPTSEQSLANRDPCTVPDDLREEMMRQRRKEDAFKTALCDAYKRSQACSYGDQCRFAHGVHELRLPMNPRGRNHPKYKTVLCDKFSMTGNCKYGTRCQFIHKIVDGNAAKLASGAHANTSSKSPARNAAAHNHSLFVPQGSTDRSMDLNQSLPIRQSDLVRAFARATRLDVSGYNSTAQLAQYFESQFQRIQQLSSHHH

[13] = target: T4, Zinc finger protein mex-5 (Caenorhabditis elegans, UniProt Q9XUB2); assay: potency of MEX-5 RNA-binding blockers – biochemical, C. elegans, fluorescence polarization, dose response (AID 1960)
T4 sequence (Q9XUB2 whole entry): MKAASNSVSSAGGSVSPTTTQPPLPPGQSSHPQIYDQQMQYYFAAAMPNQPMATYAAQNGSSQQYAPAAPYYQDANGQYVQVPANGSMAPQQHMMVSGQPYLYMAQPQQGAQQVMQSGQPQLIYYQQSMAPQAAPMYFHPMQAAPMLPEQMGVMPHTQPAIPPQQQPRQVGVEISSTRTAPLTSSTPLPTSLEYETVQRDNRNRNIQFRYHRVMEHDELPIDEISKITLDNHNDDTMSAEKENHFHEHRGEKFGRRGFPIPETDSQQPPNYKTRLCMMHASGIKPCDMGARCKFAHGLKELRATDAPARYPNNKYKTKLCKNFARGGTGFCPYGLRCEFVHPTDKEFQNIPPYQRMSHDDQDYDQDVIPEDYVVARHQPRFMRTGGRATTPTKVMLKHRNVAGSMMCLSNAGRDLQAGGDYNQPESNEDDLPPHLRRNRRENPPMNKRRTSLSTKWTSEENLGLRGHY

[14] = target: T5, Mannose-6-phosphate isomerase (Homo sapiens, UniProt P34949); assay: MPI inhibition at elevated mannose 6-phosphate – biochemical, fluorescence intensity, high mannose 6-phosphate, primary screen (AID 1220)
T5 sequence (P34949 whole entry): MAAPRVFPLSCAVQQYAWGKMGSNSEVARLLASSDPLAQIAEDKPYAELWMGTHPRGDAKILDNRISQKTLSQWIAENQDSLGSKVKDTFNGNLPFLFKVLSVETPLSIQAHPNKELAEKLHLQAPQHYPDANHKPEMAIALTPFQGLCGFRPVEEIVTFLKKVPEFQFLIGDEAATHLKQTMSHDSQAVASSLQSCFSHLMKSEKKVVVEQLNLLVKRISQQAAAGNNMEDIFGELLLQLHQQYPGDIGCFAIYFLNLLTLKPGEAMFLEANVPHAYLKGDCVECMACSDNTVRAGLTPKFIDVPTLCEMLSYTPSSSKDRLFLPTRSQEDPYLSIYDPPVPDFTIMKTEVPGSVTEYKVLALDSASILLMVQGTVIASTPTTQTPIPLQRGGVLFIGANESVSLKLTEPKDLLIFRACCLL

[15] = target: Protein disulfide-isomerase (Homo sapiens, UniProt P07237); assay: inhibition of PDI-driven insulin aggregation – biochemical, turbidity, absorbance, cherry-picked samples, dose response (AID 602350); type: functional
[16] = target: T6, RNA-editing ligase 1, mitochondrial (Trypanosoma brucei brucei, UniProt P86926); assay: inhibition of trypanosome RNA editing ligase – biochemical, fluorescence, Trypanosoma brucei, dose response (AID 1117295); type: functional
T6 sequence (P86926 whole entry): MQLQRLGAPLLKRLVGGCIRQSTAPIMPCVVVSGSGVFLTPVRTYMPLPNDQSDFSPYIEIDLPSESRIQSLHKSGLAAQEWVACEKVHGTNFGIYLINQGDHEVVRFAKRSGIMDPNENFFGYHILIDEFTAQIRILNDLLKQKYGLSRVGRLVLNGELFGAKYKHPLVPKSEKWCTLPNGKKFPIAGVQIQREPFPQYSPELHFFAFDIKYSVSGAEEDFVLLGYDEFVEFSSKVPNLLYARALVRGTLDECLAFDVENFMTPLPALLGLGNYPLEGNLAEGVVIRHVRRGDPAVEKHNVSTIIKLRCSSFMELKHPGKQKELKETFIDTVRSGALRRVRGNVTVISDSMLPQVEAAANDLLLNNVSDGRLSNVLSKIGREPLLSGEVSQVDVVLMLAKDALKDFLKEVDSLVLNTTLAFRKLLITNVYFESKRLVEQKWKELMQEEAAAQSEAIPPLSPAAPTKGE

Sequence of Cyclin-dependent kinase 8 (P49336 whole entry): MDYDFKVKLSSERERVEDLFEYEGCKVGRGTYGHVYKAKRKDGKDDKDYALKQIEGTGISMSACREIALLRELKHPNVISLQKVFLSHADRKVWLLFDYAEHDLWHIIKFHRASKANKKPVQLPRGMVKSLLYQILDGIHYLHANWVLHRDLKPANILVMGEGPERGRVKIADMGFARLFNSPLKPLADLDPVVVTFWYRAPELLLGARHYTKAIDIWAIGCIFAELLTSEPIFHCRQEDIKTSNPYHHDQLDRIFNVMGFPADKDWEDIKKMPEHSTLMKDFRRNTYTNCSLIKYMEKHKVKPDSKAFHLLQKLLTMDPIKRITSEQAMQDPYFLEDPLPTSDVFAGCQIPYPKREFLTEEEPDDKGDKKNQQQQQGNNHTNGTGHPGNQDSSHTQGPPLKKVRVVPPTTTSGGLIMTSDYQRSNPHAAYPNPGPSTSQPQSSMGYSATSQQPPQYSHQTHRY
Sequence of Tyrosine-protein kinase receptor TYRO3 (Q06418 whole entry): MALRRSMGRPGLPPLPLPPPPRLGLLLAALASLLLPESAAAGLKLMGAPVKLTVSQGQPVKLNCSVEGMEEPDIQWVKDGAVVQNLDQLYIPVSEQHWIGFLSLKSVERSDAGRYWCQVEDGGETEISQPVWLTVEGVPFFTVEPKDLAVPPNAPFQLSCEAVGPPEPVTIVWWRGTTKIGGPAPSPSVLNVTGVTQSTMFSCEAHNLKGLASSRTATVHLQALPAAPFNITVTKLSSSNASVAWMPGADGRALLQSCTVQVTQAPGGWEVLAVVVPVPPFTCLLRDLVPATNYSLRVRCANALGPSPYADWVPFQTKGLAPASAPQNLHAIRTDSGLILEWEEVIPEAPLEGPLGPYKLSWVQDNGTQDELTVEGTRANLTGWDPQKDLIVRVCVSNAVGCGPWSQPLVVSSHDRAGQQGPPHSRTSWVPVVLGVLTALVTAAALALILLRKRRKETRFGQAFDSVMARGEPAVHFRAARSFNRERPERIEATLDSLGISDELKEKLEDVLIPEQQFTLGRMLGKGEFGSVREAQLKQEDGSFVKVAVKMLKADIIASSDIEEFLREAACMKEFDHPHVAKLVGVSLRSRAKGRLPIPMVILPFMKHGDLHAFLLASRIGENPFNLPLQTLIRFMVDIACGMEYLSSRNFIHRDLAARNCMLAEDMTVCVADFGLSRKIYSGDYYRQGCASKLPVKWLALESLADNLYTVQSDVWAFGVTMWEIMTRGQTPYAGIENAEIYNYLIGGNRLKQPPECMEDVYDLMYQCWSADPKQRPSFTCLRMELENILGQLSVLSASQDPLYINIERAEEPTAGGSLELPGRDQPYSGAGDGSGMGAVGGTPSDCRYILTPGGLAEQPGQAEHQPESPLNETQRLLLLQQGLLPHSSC
Sequence of Protein disulfide-isomerase (P07237 whole entry): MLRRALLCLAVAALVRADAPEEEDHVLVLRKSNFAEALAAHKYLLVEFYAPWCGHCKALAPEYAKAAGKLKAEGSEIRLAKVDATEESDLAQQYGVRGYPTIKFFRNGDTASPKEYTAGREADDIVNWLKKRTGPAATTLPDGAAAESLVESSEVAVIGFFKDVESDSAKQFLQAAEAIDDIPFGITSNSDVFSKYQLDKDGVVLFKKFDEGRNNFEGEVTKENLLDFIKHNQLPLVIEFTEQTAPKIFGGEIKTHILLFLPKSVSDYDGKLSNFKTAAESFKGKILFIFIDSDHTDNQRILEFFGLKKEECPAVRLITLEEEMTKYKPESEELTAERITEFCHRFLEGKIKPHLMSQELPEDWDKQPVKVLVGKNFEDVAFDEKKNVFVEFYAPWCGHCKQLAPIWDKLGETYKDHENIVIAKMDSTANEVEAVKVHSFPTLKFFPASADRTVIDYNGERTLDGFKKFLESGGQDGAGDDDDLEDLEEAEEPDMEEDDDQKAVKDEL

SMILES: NC(=O)CCN1CCN(C2Cc3cc(Cl)ccc3Sc3cc(F)ccc32)CC1 (configuration not stated)
- Ki [1]: 1580 nM (active)
- Ki [2]: 1580 nM (active)

SMILES: Cc1ccc(N2C(=O)CC3(CC(c4ccccc4Cl)=NO3)C2=O)cc1 (configuration not stated)
- EC50 [3]: > 100000 nM (inactive)

SMILES: COc1ccc(C2=Nn3c(nnc3-c3ccccc3OC)SC2)cc1OC
- EC50 [4]: < 100 nM (active)
- EC50 [5]: 624 nM (active)
- EC50 (cells): 494 nM (active)
- EC50 [6]: < 100 nM (active)
- EC50 [7]: 700 nM (active)
- EC50 [8]: 300 nM (active)
- EC50 [9]: 551 nM (active)
- IC50 [10]: 1150 nM (active)
- IC50 [11]: 4220 nM (active)

SMILES: C[C@@H]1O[C@@H](Oc2c(-c3cc(O)c(O)c(O)c3)oc3cc(O)cc(O)c3c2=O)[C@H](O)[C@H](O)[C@H]1O
- EC50 [12]: 15800 nM (active)
- EC50 [13]: 14000 nM (active)
- IC50 [14]: 31000 nM (active)
- AC50 [15]: 9800 nM (active)
- IC50 [16]: 51400 nM (inactive)
